These results are taken from US8987328B2, “Esters of capsaicinoids as dietary supplements” (Trinity Laboratories, Inc., priority 2008, dated 2015).

Read-outs that look alike come from different tables or passages of the source.

The conditions of data set [1]: p<0.05, cited from earlier work.
The conditions of data set [2]: i.v. administration, rats; cited from earlier work.
The conditions of data set [3]: cited from earlier work.
The conditions of data set [4]: cited from earlier work. This is another data set of the same source.
On the set-up of data set [5]: species or system human. As to conditions: in vivo.
On the set-up of data set [6]: species or system human. The settings on record: in vivo. This is another data set of the same source.
The conditions of data set [7]: in vivo, po.
Setting [8] is: 30% lard diet, capsaicin 0.14% of diet.
Setting [9] is: cholesterol-free diet, 4 mg per animal daily, relative to controls.
Setting [10] is: diet with 0.2% cholesterol, 4 mg per animal daily.

With `COc1cc(CNC(=O)CCCCC=CC(C)C)ccc1O` [capsaicin, 8-methyl-N-vanillyl-6-nonenamide], the plasma insulin levels result in data set [1] (OGTT in dogs) is on record as “elevation”. Moreover, in data set [1] (at 2.5 h in OGTT, n=6, control 6.40+/−0.13), the blood glucose levels was 4.91 mM. Also, in data set [2], the “time to distribution to brain, spinal cord, liver and blood” value is not above 20 min. The serum triglyceride levels result in data set [3] (30% lard diet, capsaicin 0.14% of diet, vs high-fat diet without capsaicin) is listed as “significantly lower”. Also, in data set [3] (setting [8]), the levels of cholesterol result is given as “not affected”, the “levels of free fatty acids” value is “not affected” and the levels of pre-beta-lipoprotein result was “not affected”. Further, in data set [3] (high-fat diet rats), the “weight of perirenal adipose tissue” value is reported as “reduced in a dose-dependent manner”. Further, in data set [4] (setting [9]), the HDL-cholesterol result is “increased significantly”, the LDL-cholesterol entry is “increased significantly”, the VLDL cholesterol entry is reported as “decreased significantly” and the total cholesterol entry was “increased significantly”. The serum triglyceride concentrations result in data set [4] (cholesterol-free diet, 4 mg per animal daily) is on record as “Neither drug had an effect”. Moreover, in data set [4] (setting [10]), the HDL-cholesterol entry was “increased” and the VLDL-cholesterol result was “reduced”.

Regarding `COc1cc(CNC(=O)CCCCCCC(C)C)ccc1O` [dihydrocapsaicin], in data set [4] (in vivo), the HDL-cholesterol entry is recorded as “increased significantly”, the VLDL cholesterol entry is recorded as “decreased significantly”, the VLDL-cholesterol entry is listed as “reduced” and the serum triglyceride concentrations result is listed as “Neither drug had an effect”. Besides, the triglycerides entry in data set [4] (in vivo) is reported as “decreased significantly”.

“Palmitoyl Ester of Capsaicin USP [palmitoyl-capsaicin USP]”: in data set [5], the body weight entry is given as “maintained an average weight”; the “body weight fluctuation over and under average” value is given as 2-3 pounds. Further, in data set [6], the LDL cholesterol is approximately 110 mg/dL and the cholesterol level entry is given as “normal level”. Further, the “burning or irritation in the stomach” value in data set [7] was “No individual complained of burning or irritation in the stomach”.
